Measurements published in patent publication US7498162B2, “Lactic acid bacteria capable of reducing an individual's tendency to develop allergic reactions” (Nestec S.A., priority 2000, dated 2009).

How the values were obtained:
Format in all cases: in vivo, Balb/c mice
Spleen lymphocyte = test: Splenocyte specific proliferation assay ([3H]-Thy, stimulation index); settings: synthetic peptide given orally; for Spleen lymphocyte SI (test/control): SI: Stimulation Index; for T cell proliferation / T cell response: result in words
Experimental: (§1) For assessing the tolerogenic properties of the various peptides female Balb/c mice were used, obtained from IFFA-Crédo (L'Abresle France). The animals were all bred and raised on a milk free diet. At the beginning of the experiments the animals were 3 weeks old. They received by gavage native β-lactoglobulin (5 mg/g of body weight), various amounts of digested β-lactoglobulin and various amounts of the different peptides obtained under a) above. Control mice were fed saline water. After 5 days on such a diet all mice were immunized with β-lactoglobulin and ovalbumin (grade V, Sigma) as a non related antigen in order to assess the specificity of the immune response. A delayed type hypersensitivity evaluation (DTH) was performed 21 days after the systemic challenge by comparing the thickness of the left rear footpad, prior to and after the immunization. 24 hours after the immunization the foot pad thickness of the animals were measured (expressed in Δ thickness (mm)). Subsequently, blood was taken from all mice, followed by talking the spleens, that were pooled according to group treatment. Splenocyte specific proliferation assays were performed for each group. The intestinal contents were individually collected. Serum and intestinal samples were individually frozen at −80° C. until performance of the respective assays. Anti-β-lactoglobulin IgE and anti-ovalbumin IgE levels were determined both in serum and intestinal samples.
Spleen cell solutions were homogenized in PBS and purified. The cells were co-cultured in the presence of β-lactoglobulin or phytohemagglutinin A. Tritiated thymidine ([^3H]-Thy (Amersham, Zürich) was added during the last 6 hours of culture and the plates were harvested and analyzed by scintillation counting. Stimulation indices were calculated as the ratio of blank-substracted test and control levels expressed as the mean cpm of [^3H]-Thy incorporated by triplicate cultures.
(§2) The synthetic peptides were analysed for their tolerogenic capacity in the […] mouse model.

MLN lymphocytes = test: Mesenteric lymph node lymphocyte proliferation (stimulation index); settings: synthetic peptide given orally
anti-β-lactoglobulin IgE = test: Oral tolerance mouse model: anti-β-lactoglobulin IgE ELISA titer; settings: synthetic peptide given orally; for IgE titer (log) (test/control): test value of the test/control pair (control 3.39), mice then immunized with β-lactoglobulin
Experimental: as §1
The serum and intestinal fluids were diluted and assayed in duplicate for anti-β-lactoglobulin and anti-ovalbumin IgE antibodies using ELISA. Pooled samples of 20 non immunized mice were used as negative controls. The titers were determined by calculating the dilution of the sample, that gave twice the absorbance of the negative control. The titers were expressed as the log10 of the reciprocal of he dilution
as §2

| Substance | Spleen lymphocyte SI (test/control) (Spleen lymphocyte) | MLN lymphocytes SI (test/control) (MLN lymphocytes) | IgE titer (log) (test/control) (anti-β-lactoglobulin IgE) | T cell proliferation / T cell response (Spleen lymphocyte) | oral tolerance to BLG (anti-β-lactoglobulin IgE; result in words) | IgE production (anti-β-lactoglobulin IgE; result in words) |
| --- | --- | --- | --- | --- | --- | --- |
| T-6/T-17: synthetic β-lactoglobulin peptide (residues 84-100), SEQ ID 24: CFKIDALNENKVLVLDTDYKKYS (CFKIDALNENKVLVLDTDYKKYS) | 0.92 | 0.81 | 3.40/3.39 log |  |  |  |
| T-6: synthetic β-lactoglobulin peptide (residues 84-91 with flanking residues and extra Cys), SEQ ID 22: C F K I D A L N E N K V S R (CFKIDALNENKVSR) | 0.53 | 0.29 | 3.24/3.39 log | suppressed |  |  |
| T-13: control peptide, N-terminus of β-lactoglobulin (residues 1-8), SEQ ID 25: L I V T Q T M K S R C (LIVTQTMKSRC) [reference compound] | 1.70 | 0.87 | 3.20/3.39 log |  | did not induce |  |
| T-17: synthetic β-lactoglobulin peptide (residues 92-100 with flanking residues and extra Cys), SEQ ID 23: C N K V L V L D T D Y K K Y S (CNKVLVLDTDYKKYS) | 0.31 | 0.41 | 2.67/3.39 log | reduced |  | reduced |
